Patent US12448366B2, “Solid forms of pralsetinib” (Rigel Pharmaceuticals, Inc., priority 2020, dated 2025)
Structures can show the parent of a compound that is named as a salt.

How the values were obtained:
Type in all cases: physicochemical
[1] = Humidity exposure, 75% relative humidity at 40° C. for one week, XRPD
[2] = Salt screening: XRPD of wet cake, after drying under vacuum at 50° C., after exposure to 97% relative humidity; conditions: for stability of salt solid form to humidification: 97% (>95%) relative humidity; for stability of salt solid form to humidification / stability of salt solid form to drying: XRPD; for XRPD Pattern Dry / XRPD Pattern Humid: salt screening; for XRPD Pattern Dry: after drying; for XRPD Pattern Humid: after humidity exposure; for stability of salt solid form to drying: vacuum at 50° C.
Procedure: Stock solutions of counter-ion were prepared in EtOH, MeOH, or EtOAc, depending on solubility. […] The solvent was allowed to evaporate at room temperature over the weekend and then placed at 50° C. under vacuum for 3 hours to remove any remaining solvent. Approximately 25 volumes solvent (0.6 mL) was added to each vial for screening. The three solvents selected were EtOH, EtOAc, and IPA:water (9:1 vol). […] XRPD analysis was done in three stages. XRPD of the wet cake was done for all samples. Unique solids were then left on XRPD plates and dried under vacuum at 50° C. XRPD of unique dry solids was then done. […] The humid environment was generated by placing a beaker of saturated potassium sulfate in water in a sealed container. All XRPD patterns were compared to counter ion XRPD patterns and known free base patterns. Where solids were not of sufficient quantity to isolate, the solvent was evaporated at room temperature, the material dried at 50° C. under active vacuum for 3 hours, and then reslurried at room temperature in either MtBE or IPAc overnight after heating to 45° C. for 30 minutes.

[3] = One week (7 days) slurry stability by XRPD and HPLC

CO[C@]1(C(=O)N[C@@H](C)c2ccc(-n3cc(F)cn3)nc2)CC[C@H](c2nc(C)cc(Nc3cc(C)[nH]n3)n2)CC1 [hydrochloride, pralsetinib]
stability on exposure to 75% relative humidity at 40° C. ([1]; one week / 7 days, XRPD, listed as HCl salt): stable | stability of salt solid form to humidification [2]: deliquesced

CO[C@]1(C(=O)N[C@@H](C)c2ccc(-n3cc(F)cn3)nc2)CC[C@H](c2nc(C)cc(Nc3cc(C)[nH]n3)n2)CC1 [Solid Form 6-A, pralsetinib]
stability of salt solid form to humidification ([2]; listed as Pattern 6-A): became amorphous with one peak

CS(=O)(=O)O [MSA]
XRPD Pattern Dry ([2]; solvent IPA:water (9:1 vol)): 2-B + extra

CO[C@]1(C(=O)N[C@@H](C)c2ccc(-n3cc(F)cn3)nc2)CC[C@@H](c2nc(C)cc(Nc3cc(C)[nH]n3)n2)CC1.Cl [HCl]
XRPD Pattern Dry ([2]; solvent EtOAc): 5-C + broad | XRPD Pattern Humid ([2]; solvent EtOAc): 5-C + trace | XRPD Pattern Humid ([2]; solvent IPA:water (9:1 vol)): 5-C + trace

CO[C@]1(C(=O)N[C@@H](C)c2ccc(-n3cc(F)cn3)nc2)CC[C@H](c2nc(C)cc(Nc3cc(C)[nH]n3)n2)CC1 [Solid Form 10-A+B, pralsetinib]
stability of salt solid form to humidification ([2]; listed as 10-A+B): stable | stability of salt solid form to drying ([2]; listed as 10-A+B): stable

CO[C@]1(C(=O)N[C@@H](C)c2ccc(-n3cc(F)cn3)nc2)CC[C@H](c2nc(C)cc(Nc3cc(C)[nH]n3)n2)CC1 [Solid Form 12-C, pralsetinib]
stability of salt solid form to drying ([2]; listed as Pattern 12-C): stable

CO[C@]1(C(=O)N[C@@H](C)c2ccc(-n3cc(F)cn3)nc2)CC[C@H](c2nc(C)cc(Nc3cc(C)[nH]n3)n2)CC1 [sulfates generated from the 1.1 eq. experiments] [pralsetinib]
stability of salt solid form to humidification [2]: changed form

CO[C@]1(C(=O)N[C@@H](C)c2ccc(-n3cc(F)cn3)nc2)CC[C@H](c2nc(C)cc(Nc3cc(C)[nH]n3)n2)CC1 [Solid Form 5-C, pralsetinib]
stability of salt solid form to humidification ([2]; listed as Form 5-C): stable

CO[C@]1(C(=O)N[C@@H](C)c2ccc(-n3cc(F)cn3)nc2)CC[C@H](c2nc(C)cc(Nc3cc(C)[nH]n3)n2)CC1 [Solid Form 5-A, pralsetinib]
stability of salt solid form to humidification ([2]; listed as Form 5-A): deliquesced | stability of salt solid form to humidification ([2]; listed as Pattern 5-A): deliquesced | stability of salt solid form to humidification ([2]; listed as hydrochloride (5-A)): deliquesced | stability of salt solid form to drying ([2]; listed as Form 5-A): stable | stability of salt solid form to drying ([2]; listed as Pattern 5-A): stable

CO[C@]1(C(=O)N[C@@H](C)c2ccc(-n3cc(F)cn3)nc2)CC[C@H](c2nc(C)cc(Nc3cc(C)[nH]n3)n2)CC1 [Fumarate, pralsetinib]
stability of salt solid form to drying [2]: changed

CO[C@]1(C(=O)N[C@@H](C)c2ccc(-n3cc(F)cn3)nc2)CC[C@H](c2nc(C)cc(Nc3cc(C)[nH]n3)n2)CC1 [Solid Form 1-A, pralsetinib]
stability of salt solid form to humidification ([2]; listed as solid form 1-A): peak shift

CO[C@]1(C(=O)N[C@@H](C)c2ccc(-n3cc(F)cn3)nc2)CC[C@H](c2nc(C)cc(Nc3cc(C)[nH]n3)n2)CC1 [Solid Form 1-B, pralsetinib]
stability of salt solid form to humidification ([2]; listed as solid form 1-B): converted to Pattern 1-C

CO[C@]1(C(=O)N[C@@H](C)c2ccc(-n3cc(F)cn3)nc2)CC[C@H](c2nc(C)cc(Nc3cc(C)[nH]n3)n2)CC1 [Solid Form 12-D, pralsetinib]
stability of salt solid form to drying ([2]; listed as Pattern 12-D): Pattern 12-E

CO[C@]1(C(=O)N[C@@H](C)c2ccc(-n3cc(F)cn3)nc2)CC[C@H](c2nc(C)cc(Nc3cc(C)[nH]n3)n2)CC1 [Solid Form 5-B, pralsetinib]
stability of salt solid form to humidification ([2]; listed as Pattern 5-B): stable | stability of salt solid form to drying ([2]; listed as Form 5-B): converted to Form 5-C | stability of salt solid form to drying ([2]; listed as Pattern 5-B): dried to Pattern 5-C | stability slurrying 7 days in EtOAc ([3]; EtOAc, XRPD and HPLC, listed as Pattern 5-B): stable | stability slurrying 7 days in EtOH ([3]; EtOH, XRPD and HPLC, listed as Pattern 5-B): stable | stability slurrying 7 days in EtOH:water (95:5 vol) ([3]; EtOH:water (95:5 vol), XRPD and HPLC, listed as Pattern 5-B): stable

CO[C@]1(C(=O)N[C@@H](C)c2ccc(-n3cc(F)cn3)nc2)CC[C@H](c2nc(C)cc(Nc3cc(C)[nH]n3)n2)CC1 [Solid Form 9-A, pralsetinib]
stability of salt solid form to humidification ([2]; listed as 9-A): stable | stability of salt solid form to humidification ([2]; listed as oxalate 9-A): stable | stability of salt solid form to drying ([2]; listed as 9-A): stable | stability of salt solid form to drying ([2]; listed as oxalate 9-A): stable

CO[C@]1(C(=O)N[C@@H](C)c2ccc(-n3cc(F)cn3)nc2)CC[C@H](c2nc(C)cc(Nc3cc(C)[nH]n3)n2)CC1 (single isomer, unassigned) [Pattern 12-G+2 peaks, pralsetinib]
stability of salt solid form to humidification [2]: reverted to Pattern 12-G | stability of salt solid form to drying [2]: converted to Pattern 12-H

CO[C@]1(C(=O)N[C@@H](C)c2ccc(-n3cc(F)cn3)nc2)CC[C@H](c2nc(C)cc(Nc3cc(C)[nH]n3)n2)CC1 [Solid Form 4-B, pralsetinib]
stability of salt solid form to humidification ([2]; listed as Pattern 4-B): stable

CO[C@]1(C(=O)N[C@@H](C)c2ccc(-n3cc(F)cn3)nc2)CC[C@H](c2nc(C)cc(Nc3cc(C)[nH]n3)n2)CC1 [gentisate, pralsetinib]
stability of salt solid form to humidification [2]: deliquesced

CO[C@]1(C(=O)N[C@@H](C)c2ccc(-n3cc(F)cn3)nc2)CC[C@H](c2nc(C)cc(Nc3cc(C)[nH]n3)n2)CC1 [saccharine salt, pralsetinib]
stability of salt solid form to humidification [2]: changed form

CO[C@]1(C(=O)N[C@@H](C)c2ccc(-n3cc(F)cn3)nc2)CC[C@H](c2nc(C)cc(Nc3cc(C)[nH]n3)n2)CC1 [sulfate, pralsetinib]
stability of salt solid form to drying [2]: changed

CO[C@]1(C(=O)N[C@@H](C)c2ccc(-n3cc(F)cn3)nc2)CC[C@H](c2nc(C)cc(Nc3cc(C)[nH]n3)n2)CC1 [Solid Form 4-A, pralsetinib]
stability of salt solid form to humidification ([2]; listed as Pattern 4-A): stable | stability of salt solid form to drying ([2]; listed as Pattern 4-A): Pattern 4-C

CO[C@]1(C(=O)N[C@@H](C)c2ccc(-n3cc(F)cn3)nc2)CC[C@H](c2nc(C)cc(Nc3cc(C)[nH]n3)n2)CC1 [citrate, pralsetinib]
stability of salt solid form to humidification [2]: deliquesced | stability of salt solid form to humidification ([2]; listed as Citrate): deliquesced

CO[C@]1(C(=O)N[C@@H](C)c2ccc(-n3cc(F)cn3)nc2)CC[C@H](c2nc(C)cc(Nc3cc(C)[nH]n3)n2)CC1 [Pyruvate, pralsetinib]
stability of salt solid form to humidification [2]: changed form

CO[C@]1(C(=O)N[C@@H](C)c2ccc(-n3cc(F)cn3)nc2)CC[C@H](c2nc(C)cc(Nc3cc(C)[nH]n3)n2)CC1 [Solid Form 12-B, pralsetinib]
stability of salt solid form to drying ([2]; listed as Pattern 12-B): stable

COC1(C(=O)NC(C)c2ccc(-n3cc(F)cn3)nc2)CCC(c2nc(C)cc(Nc3cc(C)[nH]n3)n2)CC1.Cl (stereo not shown) [HCl 5-B]
Stability 40° C./75% RH ([1]; XRPD pattern after exposure): Stable | Stability 7-day slurry [3]: Stable

CO[C@]1(C(=O)N[C@@H](C)c2ccc(-n3cc(F)cn3)nc2)CC[C@H](c2nc(C)cc(Nc3cc(C)[nH]n3)n2)CC1 [Solid Form 8-A, pralsetinib]
stability of salt solid form to humidification ([2]; listed as Pattern 8-A): stable | stability of salt solid form to humidification ([2]; listed as maleate 8-A): stable | stability of salt solid form to drying ([2]; listed as Pattern 8-A): stable | stability of salt solid form to drying ([2]; listed as maleate 8-A): stable
